Molecules are shown by their SMILES.

We go through 6 compounds from US7439027B2, “Method for modulating process mediated by farnesoid activated receptors” (The Salk Institute for Biological Studies, priority 1995, dated 2008).

For assay [1], the target named is T1, FAR-RXRα complex (rat FAR and human RXRα) (Rattus norvegicus, UniProt Q62735, D356M/DEL339-355/E357R/INS337LPDTQTCWKKEFERAAS).
T1 construct: expressed in transfected cells; host or cells: CV-1 cells, CMV-driven expression vectors
T1 sequence (Q62735 1-469): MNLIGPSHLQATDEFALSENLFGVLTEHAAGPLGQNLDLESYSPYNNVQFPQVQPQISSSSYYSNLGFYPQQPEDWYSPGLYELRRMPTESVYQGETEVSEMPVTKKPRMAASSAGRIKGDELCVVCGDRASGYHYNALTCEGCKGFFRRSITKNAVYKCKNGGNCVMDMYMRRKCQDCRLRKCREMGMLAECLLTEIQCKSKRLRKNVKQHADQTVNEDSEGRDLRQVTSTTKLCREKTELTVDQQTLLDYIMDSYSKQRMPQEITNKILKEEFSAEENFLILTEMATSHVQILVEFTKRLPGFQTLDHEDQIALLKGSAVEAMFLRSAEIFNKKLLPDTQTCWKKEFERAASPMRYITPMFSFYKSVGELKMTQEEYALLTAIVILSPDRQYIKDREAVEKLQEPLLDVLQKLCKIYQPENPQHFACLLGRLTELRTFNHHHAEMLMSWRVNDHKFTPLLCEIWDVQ
T1 sequence (P19793 1-462 partner): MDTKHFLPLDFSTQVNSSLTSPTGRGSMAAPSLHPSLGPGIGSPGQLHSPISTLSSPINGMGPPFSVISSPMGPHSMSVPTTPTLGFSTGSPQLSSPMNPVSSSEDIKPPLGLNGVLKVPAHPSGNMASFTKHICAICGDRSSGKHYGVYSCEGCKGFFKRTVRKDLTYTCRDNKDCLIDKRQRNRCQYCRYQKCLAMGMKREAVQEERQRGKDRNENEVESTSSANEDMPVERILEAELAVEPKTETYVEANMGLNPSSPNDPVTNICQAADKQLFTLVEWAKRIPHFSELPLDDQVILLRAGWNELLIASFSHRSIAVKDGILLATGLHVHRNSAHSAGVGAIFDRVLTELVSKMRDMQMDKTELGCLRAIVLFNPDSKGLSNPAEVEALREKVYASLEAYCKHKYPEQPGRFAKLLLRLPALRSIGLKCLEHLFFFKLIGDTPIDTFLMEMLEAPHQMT
As to the kind of experiment: hsp27-EcRE×5 MTV-luciferase reporter cotransfection in CV-1 cells expressing FAR and RXRα. It counts as cell-based. Conditions: for activation of FAR-RXRα complex, hsp27 EcRE reporter: FIG. 5C. The protocol: Thus, CV-1 cells were grown in DMEM supplemented with 10% AG1-X8 resin-charcoal stripped calf bovine serum, 50 U/ml penicillin G and 50 μg/ml streptomycin sulfate (DMEM-CBS) at 37° C. in 5% CO2. One day prior to transfection, cells were plated to 50-80% confluence using phenol-red free DMEM with 10% resin charcoal stripped fetal bovine serum (DMEM-FBS). Cells were transfected (with reporter construct (300 ng/10^5 cells), cytomegalovirus driven receptor (100 ng/10^5 cells) and β-galactosidase expression vectors (500 ng/10^5 cells) as indicated in FIG. 4) by lipofection using N-{2-(2,3)-dioleoyloxy)propyl-N,N,N-trimethyl ammonium methyl sulfate} according to the manufacturer's instructions (DOTAP, Boehringer Mannheim). […] Cells were harvested and assayed for luciferase and β-galactosidase activity. […] Data points were normalized for differences in transfection efficiency using β-galactosidase, and plotted as relative activity where the untreated reporter is defined to have an activity of 1 unit.
Based on the identification of an EcRE as a DNA target, a reporter plasmid was constructed containing 5 copies of the hsp27 response element linked to a truncated mouse mammary tumor virus promoter (Yao et al., Nature 366:476-479 (1993)). This reporter was cotransfected into CV-1 cells alone, or with expression vectors for FAR and/or RXRα. Cotransfected cells were treated with a variety of potential ligands and monitored for changes in luciferase activity.
Thus, with reference to FIG. 5A, CV-1 cells were transiently transfected with hsp27-EcRE×5 MTV-luciferase alone (−) or with expression vectors for rat FAR and/or human RXRα. Reporter activity was assayed after treating cells with or without 50 μM JH III.
CV-1 cells were transiently transfected as described above with reference to FIG. 5A, but treated with or without 50 μM JH III, 100 nM LG69 and JH III+LG69.
Thus, CV-1 cells were transiently transfected with expression vectors for rat FR and human RXRα, as described above in Example 3. […] Data is plotted in FIG. 6A as fold activation relative to untreated cells.
(In a reporter assay the amount or activity of a reporter protein is the signal.)

The target of the next assay is T2, human RARα (Homo sapiens, UniProt P10276).
T2 construct: expressed in transfected cells
T2 sequence (P10276 1-462): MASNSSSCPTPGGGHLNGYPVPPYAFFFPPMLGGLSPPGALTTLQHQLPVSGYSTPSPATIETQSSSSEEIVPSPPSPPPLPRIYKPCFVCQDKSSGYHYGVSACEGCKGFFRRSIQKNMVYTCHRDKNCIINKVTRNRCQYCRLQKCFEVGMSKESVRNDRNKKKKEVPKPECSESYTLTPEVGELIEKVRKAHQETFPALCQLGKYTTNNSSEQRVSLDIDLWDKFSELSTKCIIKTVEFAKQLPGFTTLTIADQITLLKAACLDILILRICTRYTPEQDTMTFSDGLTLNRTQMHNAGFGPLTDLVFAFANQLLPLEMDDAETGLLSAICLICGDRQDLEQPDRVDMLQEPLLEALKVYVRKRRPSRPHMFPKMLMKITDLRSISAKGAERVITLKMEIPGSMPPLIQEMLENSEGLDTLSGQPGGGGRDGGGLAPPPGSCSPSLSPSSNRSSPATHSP
As to the kind of experiment: RARα / DR5×2-TK luciferase reporter. The class given is cell-based. Conditions: 50 μM JH III; FIG. 5B. The protocol:
(§1) Thus, CV-1 cells were grown in DMEM supplemented with 10% AG1-X8 resin-charcoal stripped calf bovine serum, 50 U/ml penicillin G and 50 μg/ml streptomycin sulfate (DMEM-CBS) at 37° C. in 5% CO2. One day prior to transfection, cells were plated to 50-80% confluence using phenol-red free DMEM with 10% resin charcoal stripped fetal bovine serum (DMEM-FBS). Cells were transfected (with reporter construct (300 ng/10^5 cells), cytomegalovirus driven receptor (100 ng/10^5 cells) and β-galactosidase expression vectors (500 ng/10^5 cells) as indicated in FIG. 4) by lipofection using N-{2-(2,3)-dioleoyloxy)propyl-N,N,N-trimethyl ammonium methyl sulfate} according to the manufacturer's instructions (DOTAP, Boehringer Mannheim). […] Cells were harvested and assayed for luciferase and β-galactosidase activity. All points were performed in triplicate and varied by less than 10%. Experiments were repeated three or more time with similar results. Data points were normalized for differences in transfection efficiency using β-galactosidase, and plotted as relative activity where the untreated reporter is defined to have an activity of 1 unit. […]

Assay [2] addresses T1, FAR-RXRα complex (rat FAR and human RXRα). Description: hsp27-EcRE×5 MTV-luciferase reporter cotransfection in CV-1 cells expressing FAR and RXRα. The class given is cell-based. The conditions noted are these: JH III; parental MTV reporter without EcREs.
Another assay concerns ornithine decarboxylase. Conditions: 100 μM; bovine lymphocytes; cited from earlier work.
A further assay deals with T3, human T3Rβ (Homo sapiens, UniProt P10828).
T3 construct: expressed in transfected cells
T3 sequence (P10828 1-461): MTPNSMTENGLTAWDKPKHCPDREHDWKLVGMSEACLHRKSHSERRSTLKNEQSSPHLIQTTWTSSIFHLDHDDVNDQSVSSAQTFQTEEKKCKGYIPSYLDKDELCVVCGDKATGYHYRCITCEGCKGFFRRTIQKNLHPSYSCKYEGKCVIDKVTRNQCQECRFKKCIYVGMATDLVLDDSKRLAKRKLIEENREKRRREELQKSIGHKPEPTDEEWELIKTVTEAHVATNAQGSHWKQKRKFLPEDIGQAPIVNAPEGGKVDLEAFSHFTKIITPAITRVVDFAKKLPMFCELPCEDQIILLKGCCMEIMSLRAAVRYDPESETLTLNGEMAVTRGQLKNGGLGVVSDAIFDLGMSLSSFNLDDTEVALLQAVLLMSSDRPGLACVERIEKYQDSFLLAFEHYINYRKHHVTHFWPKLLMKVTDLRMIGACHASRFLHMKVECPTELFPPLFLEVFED
As to the kind of experiment: T3Rβ / TREp×2-TK luciferase reporter. Conditions: 50 μM JH III; FIG. 5B. The class given is cell-based. The procedure: as §1

Another assay has as its system Drosophila G-EcR+USP. Description: G-EcR+USP / hsp27-EcRE×5 MTV luciferase reporter. It counts as cell-based. Conditions: 50 μM JH III; FIG. 5B. The procedure:
as §1

For the next assay, the target named is T4, human RXRα (Homo sapiens, UniProt P19793).
T4 construct: expressed in transfected cells; host or cells: CV-1 cells, CMV-driven expression vector
T4 sequence (P19793 1-462): T1 sequence (P19793 1-462 partner)
As to the kind of experiment: luciferase reporter in CV-1 cells expressing RXRα alone (hsp27-EcRE×5 MTV; CRBPII-TK). It counts as cell-based. The conditions noted are these: 50 μM JH III; FIGS. 5A and 5B. The protocol:
Thus, CV-1 cells were grown in DMEM supplemented with 10% AG1-X8 resin-charcoal stripped calf bovine serum, 50 U/ml penicillin G and 50 μg/ml streptomycin sulfate (DMEM-CBS) at 37° C. in 5% CO2. One day prior to transfection, cells were plated to 50-80% confluence using phenol-red free DMEM with 10% resin charcoal stripped fetal bovine serum (DMEM-FBS). Cells were transfected (with reporter construct (300 ng/10^5 cells), cytomegalovirus driven receptor (100 ng/10^5 cells) and β-galactosidase expression vectors (500 ng/10^5 cells) as indicated in FIG. 4) by lipofection using N-{2-(2,3)-dioleoyloxy)propyl-N,N,N-trimethyl ammonium methyl sulfate} according to the manufacturer's instructions (DOTAP, Boehringer Mannheim). […] Cells were harvested and assayed for luciferase and β-galactosidase activity. All points were performed in triplicate and varied by less than 10%. Experiments were repeated three or more time with similar results. Data points were normalized for differences in transfection efficiency using β-galactosidase, and plotted as relative activity where the untreated reporter is defined to have an activity of 1 unit.
Thus, with reference to FIG. 5A, CV-1 cells were transiently transfected with hsp27-EcRE×5 MTV-luciferase alone (−) or with expression vectors for rat FAR and/or human RXRα. Reporter activity was assayed after treating cells with or without 50 μM JH III. […]

The target in the next assay is T5, rat FAR (Rattus norvegicus, UniProt Q62735, D356M/DEL339-355/E357R/INS337LPDTQTCWKKEFERAAS).
T5 construct: expressed in transfected cells; host or cells: CV-1 cells, CMV-driven expression vector
T5 sequence (Q62735 1-469 INS337LPDTQTCWKKEFERAAS/DEL339-355/D356M/E357R): T1 sequence (Q62735 1-469)
Description: hsp27-EcRE×5 MTV-luciferase reporter in CV-1 cells expressing FAR alone. It counts as cell-based. The conditions noted are these: 50 μM JH III; FIG. 5A. The protocol:
as §1, with “results.” for “results. Data points were normalized for differences in transfection efficiency using β-galactosidase, and plotted as relative activity where the untreated reporter is defined to have an activity of 1 unit.”
Based on the identification of an EcRE as a DNA target, a reporter plasmid was constructed containing 5 copies of the hsp27 response element linked to a truncated mouse mammary tumor virus promoter (Yao et al., Nature 366:476-479 (1993)). […] Cotransfected cells were treated with a variety of potential ligands and monitored for changes in luciferase activity. […]

As for `C[C@H](CCC1OC1(C)C)[C@H]1CC[C@H]2[C@@H]3CC=C4C[C@@H](O)CC[C@]4(C)[C@H]3CC[C@]12C` (some centres unmarked) [24,25-epoxycholesterol], in assay [1] (50 μM, FIG. 6A), the “activation of FAR-RXRα (in words)” value is recorded as “little or no activation”.
Turning to `C[C@H](CCCC(C)(C)O)[C@H]1CC[C@H]2[C@@H]3CC=C4C[C@@H](O)CC[C@]4(C)[C@H]3CC[C@]12C` [25-hydroxycholesterol], the “activation of FAR-RXRα (in words)” value in assay [1] (10 μM) was “little or no activation”.
For the compound `COC(=O)/C=C(\C)CC/C=C(\C)CCC1OC1(C)C` (stereo not drawn) [JH III, cis-10,11-epoxy-3,7,11-trimethyl-trans-trans-2,6-dodecadienoic acid methyl ester], the “activation of all-trans retinoic acid receptor (RAR)” value at human RARα is “failed to activate”. For the same compound, the “activation of FAR-RXR complexes using parental MTV reporter construct lacking the EcREs” value in assay [2] was “failed to activate”. For the same compound, the “antagonism of induction of ornithine decarboxylase by phorbol esters and phytohemagglutinin” value with ornithine decarboxylase is reported as “can be antagonized”. In addition, on human T3Rβ, the “activation of thyroid hormone receptor (T3R)” value was “failed to activate”. Also, the “induction of luciferase activity” value in assay [1] (50 μM JH III, CV-1 cells expressing both FAR and RXRα, FIG. 5A) is recorded as 10 fold. In addition, the “activation of FAR-RXRα complex, hsp27 EcRE reporter” value in assay [1] (50 μM JH III) worked out at 17 fold. Moreover, the “activation of ecdysone receptor (EcR+USP)” value in the assay with Drosophila G-EcR+USP was “failed to activate”. The “activation of RXRα alone” value on human RXRα is given as “fails to activate”. The “activation of FAR alone” value on rat FAR is reported as “fails to activate”.
In the case of `CC=C(c1ccc(C(=O)O)cc1)c1cc2c(cc1C)C(C)(C)CCC2(C)C` [LG69, (4-{1-3,5,5,8,8-pentamethyl-5,6,7,8-tetrahydro-2-napthalenyl)-1-propenyl}benzoic acid], the “activation of FAR-RXRα complex, hsp27 EcRE reporter” value in assay [1] (100 nM LG69) was found to be 76 fold.
`CC(C)=CCCC(C)=CCCC(C)=CC=O` [farnesal]: the “activation of FAR-RXRα (in words)” value in assay [1] (50 μM, FIG. 6A) is listed as “weaker activity”.
Turning to `CC(C)=CCCC(C)=CCCC(C)=CC(=O)O` [farnesoic acid], the “activation of FAR-RXRα (in words)” value in assay [1] (50 μM, FIG. 6A) was “little or no activation”.
